Source: patent US20040162422A1, “Chemical compounds” (priority 2001, published 2004)

Columns and labels:
[1] = biological target: T1, human adenosine A1 receptors (Homo sapiens, UniProt P30542); test: Reporter gene experiments in yeast (agonist activity, β-galactosidase/FDG readout); assay type: cell-based; set-up: key: equipotent concentration ratio relative to NECA = 1; settings: ECR = equipotent concentration ratio relative to NECA = 1; agonist potency, yeast reporter gene assay
T1 construct: expressed in transfected cells
T1 sequence (P30542 1-326): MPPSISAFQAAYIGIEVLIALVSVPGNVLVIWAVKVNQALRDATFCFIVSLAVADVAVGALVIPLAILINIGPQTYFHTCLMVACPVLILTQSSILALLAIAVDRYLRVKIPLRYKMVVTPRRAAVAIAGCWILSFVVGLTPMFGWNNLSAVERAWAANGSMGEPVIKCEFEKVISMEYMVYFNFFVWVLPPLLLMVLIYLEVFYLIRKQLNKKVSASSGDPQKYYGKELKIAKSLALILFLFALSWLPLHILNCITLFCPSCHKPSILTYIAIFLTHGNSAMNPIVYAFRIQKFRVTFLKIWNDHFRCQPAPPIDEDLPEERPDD
Protocol: Reporter Gene Experiments in Yeast
Agonist activity at human adenosine A1 receptors was measured in yeast cell lines expressing the adenosine A1 receptor together with a chimeric G-protein which linked receptor stimulation to the expression of the enzyme β-galactosidase. Cells were plated out in 96-well plates in culture medium to which was added 2 mM 3-AT (3-aminotriazole) to limit basal growth in the absence of agonist stimulation, and FDG (fluorescein di-β-D-galactopyranoside) as substrate for β-galactosidase, which converts FDG to fluorescein. For measurement of potency, agonists were added to the appropriate wells at a concentration range of approximately 10^−10-10^−5M and incubated at 30° C. for 18 hours. At this point the amount of fluorescein generated was measured in a spectrophotometer. From these readings, the concentration-dependence of the stimulation by the agonist can be calculated. One of the agonists tested on each 96-well plate was the standard non-selective agonist, N-ethylcarboxamidoadenosine (NECA), and the potency of all test agonists is expressed relative to that of the NECA standard.
(ECR=equipotent concentration ratio relative to NECA=1)

[2] = biological target: T2, human adenosine A3 receptors (Homo sapiens, UniProt P0DMS8); test: Reporter gene experiments in CHO cells (CRE/SPAP, inhibition of forskolin-stimulated SPAP production); assay type: cell-based; settings: ECR = equipotent concentration ratio relative to NECA = 1; agonist potency, CHO CRE/SPAP reporter gene assay
T2 construct: expressed in transfected cells; host or cells: Chinese hamster ovary (CHO) cells with CRE/SPAP/HYG reporter
T2 sequence (P0DMS8 1-318): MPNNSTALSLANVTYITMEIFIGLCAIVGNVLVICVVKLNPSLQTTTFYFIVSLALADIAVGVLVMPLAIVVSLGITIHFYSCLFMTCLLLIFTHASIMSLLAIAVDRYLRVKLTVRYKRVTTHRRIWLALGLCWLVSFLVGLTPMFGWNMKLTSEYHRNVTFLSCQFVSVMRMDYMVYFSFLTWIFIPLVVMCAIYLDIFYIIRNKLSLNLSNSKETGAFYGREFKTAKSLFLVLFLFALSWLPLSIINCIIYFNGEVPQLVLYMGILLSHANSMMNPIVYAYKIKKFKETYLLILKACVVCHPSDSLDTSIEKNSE
From the text: The compounds useful in the invention are agonists at the adenosine A1 receptor. Preferably they are selective agonists at the adenosine A1 receptor. By selective is meant that the affinity for the A1 receptor is at least 2 times, preferably 5 times and more preferably 10 times greater than the other adenosine receptor subtypes, particularly A3. Agonist selectivity of compounds against other human adenosine receptors can be determined using Chinese hamster ovary (CHO) cells transfected with the gene for the relevant human adenosine receptor following a method based on that of Castanon, K V. and Spevak, W. (1994) Biochem. Biophys. Res. Commun. 198, 626-631. The CHO cells are also transfected with cyclic AMP response elements promoting the gene for secreted placental alkaline phosphatase (SPAP) (Wood, K V. (1995) Cuff. Opinion. Biotechnology, 6, 50-58). The effect of test compounds is determined by their effects on basal levels of cAMP (A2a) or on forskolin-enhanced cAMP (A1 and A3) as reflected by changes in levels of SPAP. EC50 values for compounds are determined as a ratio to that of the non-selective agonist N-ethyl carboxamidoadenosine (NECA). “Adenosine receptors: New opportunities for future drugs” (S. A. Poulsen et al, Bioorg. Med. Chem,. 1998, 6, 619-641) summarises disease conditions that may be treated with adenosine A1 agonists.
Reporter Gene Experiments in CHO cells
Agonist activity at human adenosine A3 receptors was measured in Chinese hamster ovary (CHO) cells containing the CRE/SPAP/HYG (CRE=cyclic AMP response element; HYG=hygromycin resistance; SPAP=secreted placental alkaline phosphatase) reporter gene elements, which upon stimulation of cAMP levels produced SPAP. A cell line was used which was stably transfected with the human adenosine A3 receptor in addition to the above elements. Cells were plated out in 96-well plates in culture medium and incubated at 37° C. for 1 hour. For measurement of potency, agonists were added to the appropriate wells at a concentration range of approximately 10^−10-10^−5M. 15 Min later, cAMP levels were stimulated by addition of a maximal concentration of forskolin. All cells were then incubated for a further 5 hours at 37° C., and cooled to room temperature, after which a substrate for the phosphatase (para-nitrophenol phosphate, pNPP), which is converted by SPAP to a coloured reagent) was then added and the 96-well plates were read in a plate reader. From these readings, the concentration-dependence of the inhibition by the agonist for forskolin-stimulated SPAP production can be calculated. As with the yeast assays, one of the agonists tested on each 96-well plate was the standard non-selective agonist, N-ethylcarboxamidoadenosine (NECA), and the potency of all test agonists is expressed relative to that of the NECA standard.

C#C[C@H]1O[C@@H](n2cnc3c(N[C@@H]4CCC[C@]4(OC)c4ccccc4)ncnc32)[C@H](O)[C@@H]1O (relative stereo) [Example 9, (2R,3R,4S,6R)-5-Ethynyl-2-(6-{[(1R*,2S*)-2-methoxy-2-phenylcyclopentyl]amino}-9H-purin-9-yl)tetrahydrofuran-3,4-diol]
Adenosine A1 receptor ECR* [1]: 23.81
Adenosine A3 receptor ECR* [2]: >165

C#C[C@H]1O[C@@H](n2cnc3c(N[C@H]4C[C@H]5CCC[C@H]54)ncnc32)[C@H](O)[C@@H]1O (relative stereo) [Example 17, (2R,3R,4S,5R)-2-{6-[(1R*,5R*,6S*)-Bicyclo[3.2.0]hept-6-ylamino]-9H-purin-9-yl}-5-ethynyltetrahydrofuran-3,4-diol]
Adenosine A1 receptor ECR* [1]: 2.88
Adenosine A3 receptor ECR* [2]: >416

C#C[C@H]1O[C@@H](n2cnc3c(NCCS(=O)(=O)NCC)ncnc32)[C@H](O)[C@@H]1O [Example 1, N-Ethyl-2-({9-[(2R,3R,4S,5R)-5-ethynyl-3,4-dihydroxytetrahydrofuran-2-yl]-9H-purin-6-yl}amino)ethanesulfonamide]
Adenosine A1 receptor ECR* [1]: 9.95
Adenosine A3 receptor ECR* [2]: >1070

C#C[C@H]1O[C@@H](n2cnc3c(NC4CCN(C(=O)OCC)CC4)ncnc32)[C@H](O)[C@@H]1O [Example 2, Ethyl 4-({9-[(2R,3R,4S,5R)-5-ethynyl-3,4-dihydroxytetrahydrofuran-2-yl]-9H-purin-6-yl}amino)piperidine-1-carboxylate]
Adenosine A1 receptor ECR* [1]: 10
Adenosine A3 receptor ECR* [2]: >3580

C#C[C@H]1O[C@@H](n2cnc3c(N[C@H]4CCC[C@@H]4O)ncnc32)[C@H](O)[C@@H]1O [Example 3, (2R,3R,4S,5R)-5-Ethynyl-2-(6-{[(1S,2S)-2-hydroxycyclopentyl]amino}-9H-purin-9-yl)tetrahydrofuran-3,4-diol]
Adenosine A1 receptor ECR* [1]: 6.48
Adenosine A3 receptor ECR* [2]: >823

C#C[C@H]1O[C@@H](n2cnc3c(NC4Cc5ccccc5C4)ncnc32)[C@H](O)[C@@H]1O [Example 4, (2R,3R,4S,5R)-2-[6-(2,3-Dihydro-1H-inden-2-ylamino)-9H-purin-9-yl]-5-ethynyltetrahydrofuran-3,4-diol]
Adenosine A1 receptor ECR* [1]: 27.96
Adenosine A3 receptor ECR* [2]: >407

C#C[C@H]1O[C@@H](n2cnc3c(NCCc4ccccc4)ncnc32)[C@H](O)[C@@H]1O [Example 6, (2R,3R,4S,5R)-5-ethynyl-2-{6-[(2-phenylethyl)amino]-9H-purin-9-yl}tetrahydrofuran-3,4-diol]
Adenosine A1 receptor ECR* [1]: 24.6
Adenosine A3 receptor ECR* [2]: >1059

C#C[C@H]1O[C@@H](n2cnc3c(NC4CCCCC4)ncnc32)[C@H](O)[C@@H]1O [Example 7, (2R,3R,4S,5R)-2-[6-(Cyclohexylamino)-9H-purin-9-yl]-5-ethynyltetrahydrofuran-3,4-diol]
Adenosine A1 receptor ECR* [1]: 11.4
Adenosine A3 receptor ECR* [2]: >178

C#C[C@H]1O[C@@H](n2cnc3c(N[C@H]4[C@H]5CC[C@H](C5)[C@@H]4C)ncnc32)[C@H](O)[C@@H]1O [Example 8, (2R,3R,4S,5R)-5-Ethynyl-2-(6-{[(1S,2S,3S,4R)-3-methylbicyclo[2.2.1]hept-2-yl]amino}-9H-purin-9-yl)tetrahydrofuran-3,4-diol]
Adenosine A1 receptor ECR* [1]: 7.94
Adenosine A3 receptor ECR* [2]: >178

C#C[C@H]1O[C@@H](n2cnc3c(NC4CC4)ncnc32)[C@H](O)[C@@H]1O [Example 10, (2R,3R,4S,5R)-2-[6-(Cyclopropylamino)-9H-purin-9-yl]-5-ethynyltetrahydrofuran-3,4-diol]
Adenosine A1 receptor ECR* [1]: 6.89
Adenosine A3 receptor ECR* [2]: >1066

C#C[C@H]1O[C@@H](n2cnc3c(NCC4CC4)ncnc32)[C@H](O)[C@@H]1O [Example 11, (2R,3R,4S,5R)-2-{6-[(Cyclopropylmethyl)amino]-9H-purin-9-yl}-5-ethynyltetrahydrofuran-3,4-diol]
Adenosine A1 receptor ECR* [1]: 5
Adenosine A3 receptor ECR* [2]: >210

C#C[C@H]1O[C@@H](n2cnc3c(NC4CCCC4)ncnc32)[C@H](O)[C@@H]1O [Example 12]
Adenosine A1 receptor ECR* [1]: 4.47
Adenosine A3 receptor ECR* [2]: >80.2

C#C[C@H]1O[C@@H](n2cnc3c(N[C@@H]4CCO[C@@H]4C)ncnc32)[C@H](O)[C@@H]1O [Example 13, (2R,3R,4S,5R)-5-Ethynyl-2-(6-{[(2R,3R)-2-methyltetrahydrofuran-3-yl]amino}-9H-purin-9-yl)tetrahydrofuran-3,4-diol]
Adenosine A1 receptor ECR* [1]: 18.86
Adenosine A3 receptor ECR* [2]: >386

C#C[C@H]1O[C@@H](n2cnc3c(N[C@H]4CCO[C@H]4C)ncnc32)[C@H](O)[C@@H]1O [Example 14, (2R,3R,4S,5R)-5-Ethynyl-2-(6-{[(2S,3S)-2-methyltetrahydrofuran-3-yl]amino}-9H-purin-9-yl)tetrahydrofuran-3,4-diol]
Adenosine A1 receptor ECR* [1]: 14.86
Adenosine A3 receptor ECR* [2]: >502

C#C[C@H]1O[C@@H](n2cnc3c(NC4CC4(C)C)ncnc32)[C@H](O)[C@@H]1O (stereo partly drawn) [Example 18, (2R,3R,4S,5R)-2-{6-[(2,2-Dimethylcyclopropyl)amino]-9H-purin-9-yl}-5-ethynyltetrahydrofuran-3,4-diol]
Adenosine A1 receptor ECR* [1]: 6.81
Adenosine A3 receptor ECR* [2]: >3208

C#C[C@H]1O[C@@H](n2cnc3c(Nc4ccc(F)cc4F)ncnc32)[C@H](O)[C@@H]1O [Example 32, (2R,3R,4S,5R)-2-{6-[(2,4-Difluorophenyl)amino]-9H-purin-9-yl}-5-ethynyltetrahydrofuran-3,4-diol]
Adenosine A1 receptor ECR* [1]: 7.94
Adenosine A3 receptor ECR* [2]: >1070

C#C[C@H]1O[C@@H](n2cnc3c(Nc4ccc(Cl)cc4F)ncnc32)[C@H](O)[C@@H]1O [Example 33, (2R,3R,4S,5R)-2-{6-[(4-Chloro-2-fluorophenyl)amino]-9H-purin-9-yl}-5-ethynyltetrahydrofuran-3,4-diol]
Adenosine A1 receptor ECR* [1]: 26.31
Adenosine A3 receptor ECR* [2]: >215

C#C[C@H]1O[C@@H](n2cnc3c(Nc4ccc(F)cc4Cl)ncnc32)[C@H](O)[C@@H]1O [Example 35, (2R,3R,4S,5R)-2-{6-[(2-chloro-4-fluorophenyl)amino]-9H-purin-9-yl}-5-ethynyltetrahydrofuran-3,4-diol]
Adenosine A1 receptor ECR* [1]: 6.48
Adenosine A3 receptor ECR* [2]: >974

C#C[C@H]1O[C@@H](n2cnc3c(Nc4ccc(F)cc4C)ncnc32)[C@H](O)[C@@H]1O [Example 36, (2R,3R,4S,5R)-5-Ethynyl-2-{6-[(4-fluoro-2-methylphenyl)amino]-9H-purin-9-yl}tetrahydrofuran-3,4-diol]
Adenosine A1 receptor ECR* [1]: 7.15
Adenosine A3 receptor ECR* [2]: >1117
